# Results published in patent publication US12685312B2, “Sulfonamide apyrase inhibitors” (Texas Crop Science, Inc., priority 2022, dated 2026).
# System: apyrase
# Experiment: Screen for apyrase inhibitors (Method 1, in vitro phosphate-release absorbance assay)
# Assay type: biochemical
# Conditions: inhibitor conc at 1 mM stock, 1 hr room temperature, absorbance 630 nm; rounded average of two assay results
# Experimental: Apyrase inhibitors useful as enhancers of pesticidal activity are assessed using an in vitro assay. The method of Windsor, Bio Techniques 33:1024-1030 (November 2002) was used as follows Screen for Apyrase Inhibitors- 96 well plates were used for the assay: (Greiner bio-one: REF-655901-96 well, PS, F-bottom, Clear, Non-binding) Buffers: • Reaction Buffer: 60 mM Hepes; 3 mM MgCl2, 3 mM CaCl2 and 3 mM ATP (pH 6.5) • Development Buffer A: 2% aqueous ammonium molybdate • Development Buffer B: 11% ascorbic acid in 37.5% TCA in water • Stop buffer C: 2% trisodium citrate in 2% acetic acid solution in water • Add 100 μl of reaction buffer to each well. • Add 10 μl of DMSO (control) or inhibitor/compound or compounds such as […] or orthovanadate to each well. […] A blank cell indicates either <10% observed inhibition or a large difference between repetitions. In certain examples, the lack of observed inhibition is due to a lack of solubility of the compound under assay conditions, rather than a lack of apyrase inhibitory activity.
row,% Inhibition of Apyrase,SMILES
1,60%,"CCOc1ncccc1C(=O)Nc1cccc(S(=O)(=O)N(C)c2ccccc2)c1 [I-711, 2-ethoxy-N-(3-(N-methyl-N-phenylsulfamoyl)phenyl)nicotinamide]"
2,29%,"CN(c1ccccc1)S(=O)(=O)c1ccccc1C(=O)Nc1ccc(C(N)=O)cc1 [I-816, N-(4-carbamoylphenyl)-2-(N-methyl-N-phenylsulfamoyl)benzamide]"
3,10%,"O=C(Nc1cccc(C(F)(F)F)c1)c1ccccc1S(=O)(=O)N1CCCCC1 [I-356, 2-(piperidin-1-ylsulfonyl)-N-(3-(trifluoromethyl)phenyl)benzamide]"
4,64%,"COc1ccc(NS(=O)(=O)c2cccc(C(=O)N3c4ccccc4CC3C)c2)cc1 (stereo not shown) [I-435, N-(4-methoxyphenyl)-3-(2-methylindoline-1-carbonyl)benzenesulfonamide]"
5,28%,"O=C(Nc1cccc(S(=O)(=O)Nc2cccc(C(F)(F)F)c2)c1)c1ccco1 [I-759, N-(3-(N-(3-(trifluoromethyl)phenyl)sulfamoyl)phenyl) furan-2-carboxamide]"
6,29%,"COc1ccccc1NS(=O)(=O)c1ccc(NC(=O)c2ccc(C#N)cc2)cc1 [I-999, 4-cyano-N-(4-(N-(2-methoxyphenyl)sulfamoyl)phenyl)benzamide]"
7,49%,"COc1ccccc1NC(=O)c1ccc(NS(=O)(=O)c2ccc(C#N)cc2)cc1 [I-942, 4-((4-cyanophenyl)sulfonamido)-N-(2-methoxyphenyl)benzamide]"
8,61%,"O=C(Nc1cccc(S(=O)(=O)N2CCCCC2)c1)c1cccc(S(=O)(=O)N2CCc3ccccc32)c1 [I-446, 3-(indolin-1-ylsulfonyl)-N-(3-(piperidin-1-ylsulfonyl)phenyl)benzamide]"
9,53%,"CN(c1ccccc1)S(=O)(=O)c1ccccc1C(=O)Nc1ccc2c(c1)OCO2 [I-351, N-(benzo[d][1,3]dioxol-5-yl)-2-(N-methyl-N-phenylsulfamoyl)benzamide]"
10,65%,"O=C(c1cccc(S(=O)(=O)Nc2ccc(Br)cc2)c1)N1CCN(c2cccc(Cl)c2)CC1 [I-247, N-(4-bromophenyl)-3-(4-(3-chlorophenyl)piperazine-1-carbonyl)benzenesulfonamide]"
11,65%,"O=C(Nc1ccc(Cl)c(S(=O)(=O)N2CCOCC2)c1)c1ccc(S(=O)(=O)Nc2cccc(C(F)(F)F)c2)cc1 [I-386, N-(4-chloro-3-(morpholinosulfonyl)phenyl)-4-(N-(3-(trifluoromethyl)phenyl)sulfamoyl)benzamide]"
12,12%,"CC(=O)Nc1ccc(NC(=O)c2cccc(S(=O)(=O)Nc3ccc(Br)cc3)c2)cc1 [I-47, N-(4-acetamidophenyl)-3-(N-(4-bromophenyl)sulfamoyl)benzamide]"
13,58%,"O=C(Nc1ccc(S(=O)(=O)NC2CC2)cc1)c1cccc(S(=O)(=O)N2CCc3ccccc32)c1 [I-478, N-(4-(N-cyclopropylsulfamoyl)phenyl)-3-(indolin-1-ylsulfonyl)benzamide]"
14,44%,"CCOc1ccc(NC(=O)c2cccc(S(=O)(=O)Nc3ccc4c(c3)OCO4)c2)cc1OC [I-586, 3-(N-(benzo[d][1,3]dioxol-5-yl)sulfamoyl)-N-(4-ethoxy-3-methoxyphenyl)benzamide]"
15,72%,"CC1Cc2ccccc2N1C(=O)c1ccc(S(=O)(=O)Nc2ccccc2)cc1 (stereo not shown) [I-381, 4-(2-methylindoline-1-carbonyl)-N-phenylbenzenesulfonamide]"
16,64%,"Cc1ccc(C(=O)Nc2ccccc2S(=O)(=O)Nc2ccccc2)cc1F [I-817, 3-fluoro-4-methyl-N-(2-(N-phenylsulfamoyl)phenyl)benzamide]"
17,34%,"NC(=O)c1cc(NC(=O)c2cccc(NS(=O)(=O)c3ccc4c(c3)OCCO4)c2)ccc1Cl [I-325, N-(3-carbamoyl-4-chlorophenyl)-3-((2,3-dihydrobenzo[b][1,4]dioxine)-6-sulfonamido)benzamide]"
18,26%,"Cc1ccc(NC(=O)c2cccc(NS(=O)(=O)c3cccs3)c2)c(C)c1 [I-662, N-(2,4-dimethylphenyl)-3-(thiophene-2-sulfonamido)benzamide]"
19,76%,"C#Cc1cccc(NC(=O)c2cccc(S(=O)(=O)Nc3ccc(Cl)cc3)c2)c1 [I-237, 3-(N-(4-chlorophenyl)sulfamoyl)-N-(3-ethynylphenyl)benzamide]"
20,66%,"O=C(Nc1ccccc1OC(F)F)c1ccc(S(=O)(=O)Nc2ccccc2F)cc1 [I-383, N-(2-(difluoromethoxy)phenyl)-4-(N-(2-fluorophenyl)sulfamoyl)benzamide]"

row,% Inhibition of Apyrase,SMILES
1,54%,"O=C(Nc1ccc(-n2cnnn2)cc1)c1cccc(S(=O)(=O)N2CCc3ccccc32)c1 [I-535, N-(4-(1H-tetrazol-1-yl)phenyl)-3-(indolin-1-ylsulfonyl)benzamide]"
2,64%,"COc1ccccc1C(=O)Nc1cccc(S(=O)(=O)Nc2ccc(Br)cc2)c1 [I-331, N-(3-(N-(4-bromophenyl)sulfamoyl)phenyl)-2-methoxybenzamide]"
3,57%,"Cc1ccc(F)c(NC(=O)c2cccc(S(=O)(=O)N3c4ccccc4CC3C)c2)c1 (stereo not shown) [I-497, N-(2-fluoro-5-methylphenyl)-3-((2-methylindolin-1-yl)sulfonyl)benzamide]"
4,38%,"O=C(Nc1cccc([N+](=O)[O-])c1)c1ccc(Br)c(S(=O)(=O)Nc2ccc(Br)cc2)c1 [I-22, 4-bromo-3-(N-(4-bromophenyl)sulfamoyl)-N-(3-nitrophenyl)benzamide]"
5,64%,"COc1ccccc1C(=O)Nc1cccc(NS(=O)(=O)c2ccc(C)c(C)c2)c1 [I-341, N-(3-((3,4-dimethylphenyl)sulfonamido)phenyl)-2-methoxybenzamide]"
6,53%,"COc1ccc(NS(=O)(=O)c2cccc(NC(=O)c3n[nH]c(=O)c4ccccc34)c2)cc1 [I-736, N-(3-(N-(4-methoxyphenyl)sulfamoyl)phenyl)-4-oxo-3,4-dihydrophthalazine-1-carboxamide]"
7,29%,"O=C(Nc1ccc(N2CCOCC2)cc1)c1cccc(S(=O)(=O)Nc2ccc3c(c2)OCO3)c1 [I-283, 3-(N-(benzo[d][1,3]dioxol-5-yl)sulfamoyl)-N-(4-morpholinophenyl)benzamide]"
8,53%,"Cc1ccc(NC(=O)c2cccc(S(=O)(=O)N3c4ccccc4CC3C)c2)c(C)c1 (stereo not shown) [I-547, N-(2,4-dimethylphenyl)-3-((2-methylindolin-1-yl)sulfonyl)benzamide]"
9,58%,"O=C(Nc1nc2ccccc2[nH]1)c1cccc(NS(=O)(=O)c2ccc3c(c2)OCCCO3)c1 [I-635, N-(1H-benzo[d]imidazol-2-yl)-3-((3,4-dihydro-2H-benzo[b][1,4]dioxepine)-7-sulfonamido)benzamide]"
10,57%,"Cc1ccc(C)c(S(=O)(=O)Nc2ccc(C(=O)Nc3cccc(C(F)(F)F)c3)cc2)c1 [I-922, 4-((2,5-dimethylphenyl)sulfonamido)-N-(3-(trifluoromethyl)phenyl)benzamide]"
11,4%,"Cc1ccc(S(=O)(=O)Nc2ccccc2F)cc1C(=O)Nc1ccc(F)cc1F [I-611, N-(2,4-difluorophenyl)-5-(N-(2-fluorophenyl)sulfamoyl)-2-methylbenzamide]"
12,53%,"O=C(c1cc(S(=O)(=O)Nc2cccc(Cl)c2)c(Cl)cc1Cl)N1CCCc2ccccc21 [I-551, 2,4-dichloro-N-(3-chlorophenyl)-5-(1,2,3,4-tetrahydroquinoline-1-carbonyl)benzenesulfonamide]"
13,60%,"Cc1cnc(NC(=O)c2cccc(NS(=O)(=O)c3ccc(Cl)c(Cl)c3)c2)[nH]1 [I-633, 3-((3,4-dichlorophenyl)sulfonamido)-N-(5-methyl-1H-imidazol-2-yl)benzamide]"
14,67%,"N#Cc1ccc(NC(=O)c2cccc(S(=O)(=O)Nc3ccc4c(c3)OCO4)c2)cc1 [I-187, 3-(N-(benzo[d][1,3]dioxol-5-yl)sulfamoyl)-N-(4-cyanophenyl)benzamide]"
15,62%,"O=C1CCc2cc(S(=O)(=O)Nc3cccc(C(=O)Nc4cccc(C(F)(F)F)c4)c3)ccc2N1 [I-218, 3-((2-oxo-1,2,3,4-tetrahydroquinoline)-6-sulfonamido)-N-(3-(trifluoromethyl)phenyl)benzamide]"
16,38%,"Cc1ccc(NC(=O)c2ccc(NS(=O)(=O)c3ccc(F)cc3)cc2)c(C)c1 [I-951, N-(2,4-dimethylphenyl)-4-((4-fluorophenyl)sulfonamido)benzamide]"
17,16%,"COc1ccc(NS(=O)(=O)c2ccc(C(=O)Nc3cccc(C(C)=O)c3)cc2)cc1 [I-413, N-(3-acetylphenyl)-4-(N-(4-methoxyphenyl)sulfamoyl)benzamide]"
18,54%,"O=C(Nc1cccc(S(=O)(=O)Nc2ccccc2Cl)c1)c1ccc2ccccc2n1 [I-734, N-(3-(N-(2-chlorophenyl)sulfamoyl)phenyl)quinoline-2-carboxamide]"
19,31%,"O=C(Nc1ccc2[nH]c(=O)[nH]c2c1)c1cccc(S(=O)(=O)N2CCc3ccccc32)c1 [I-598, 3-(indolin-1-ylsulfonyl)-N-(2-oxo-2,3-dihydro-1H-benzo[d]imidazol-5-yl)benzamide]"
20,59%,"O=C(c1cccc(S(=O)(=O)Nc2ccc(Br)cc2)c1)N1CCc2sccc2C1 [I-262, N-(4-bromophenyl)-3-(4,5,6,7-tetrahydrothieno[3,2-c]pyridine-5-carbonyl)benzenesulfonamide]"
